Results published in US8663647B2, “Epitope peptides derived from vascular endothelial growth factor receptor 1 and vaccines containing these peptides” (Oncotherapy Science, Inc., priority 2005, dated 2014).
Entries after “also recorded” stand apart in the source; their conditions may differ.

Legend:
[1] = test system: MCA205 cells; test: In vivo anti-tumor effects, therapeutic model; design: species or system A2/Kb transgenic mice; conditions: MCA205 i.d. day 0; vaccination with IFA-conjugated peptide after tumor challenge
Protocol: We examined the anti-tumor effects of this vaccination with a therapeutic model. The 1×10^5 MCA205 cells or the 5×10^5 B16 cells were injected i.d. in the right flank on day 0, and vaccination was performed on day 4 and day 14 using IFA conjugated corresponding peptides. […] The MCA205, a methylcholanthrene-induced murine fibrosarcoma cell line were injected i.d. into A2/Kb TGM on day 0, and vaccination was performed on these mice on 4 and 14 days after the tumor challenge using VEGFR1-1087, -770, -417 peptides conjugated with IFA (FIG. 6).

[2] = test system: T2 cells and A24-LCL pulsed with candidate peptides; test: CTL induction with peptide-pulsed DCs and 4-h 51Cr-release cytotoxicity assay on peptide-pulsed target cells; type: cell-based; conditions: human PBMC-derived DCs pulsed with peptide, autologous CD8+ T cells
Text: Monocyte-derived dendritic cells (DCs) were used to induce CTL responses against peptides presented on HLA as previously described (Nukaya et al., (1999) Int. J. Cancer. 80: 92-7, Tsai et al., (1997) J. Immunol. 158: 1796-802, Nakahara et al., (2003) Cancer Res. 63: 4112-8). In brief, the PBMCs were obtained from the healthy volunteers with corresponding HLAs and cultured in the presence of GM-CSF (provided by Kirin Brewery Company, Japan) and IL-4 (Genzyme/Techne, Minneapolis). After culture for 5 days, OK-432 (Chugai Pharmaceutical Corporation, Japan) was added to the culture to obtain mature DCs (Nakahara et al., (2003) Cancer Res. 63: 4112-8). On day 7, generated mature DCs were pulsed with each peptide for T cell stimulation. Using these peptide-pulsed DCs each time, the autologous CD8+ T cells were stimulated for three times on day 0, 7 and 14, and then the resultant lymphoid cells were tested for their cytotoxic activities on day 21. To generate CTL clones, established CTL lines were plated in 96-well plates at 0.3, 1, and 3 cells per well with allogenic PBMCs and […] as stimulator cells. Cytotoxic activities of resulting CTL clones were tested on the 14th day. Cytotoxic activities were measured using a standard 4-h ^51Cr-release assay. The T2 cells and A24-LCL were used as target cells pulsed with candidate peptides. Percent specific lysis was calculated as follows: % Specific lysis=[(experimental release−spontaneous release)/(maximum release−spontaneous release)]×100. Immunogenicity of Epitope Peptides in A2/Kb TGM

[3] = test system: IFN-γ production of CTLs against T2 cells pulsed with peptides; test: IFN-γ ELISPOT assay, immunogenicity of epitope peptides in A2/Kb TGM; type: in vivo, A2/Kb transgenic mice; conditions: IFA-conjugated peptide injected day 0 and day 11; splenocytes day 21; E/T ratio x20
Protocol: For priming the peptide-specific CTLs, immunization was given using 200 μl of vaccine mixture, which contains 100 μg of an HLA-A2 restricted peptide and 100 μl of IFA per mouse. The vaccine was injected intradermally in the right flank for the first immunization on day 0 and in the other flank for the second on day 11. On day 21, splenocytes of the vaccinated mice were used as the responder cells, and T2 cells pulsed with or without peptides were used as the stimulator cells for ELISPOT assay.
At first, we evaluated the immunogenicity of the epitope peptides for A2/Kb TGM to examine the specific production of IFN-γ of the CTLs induced with these peptides by ELISPOT assay (FIG. 4). IFA-conjugated peptide was injected s.c. into A2/Kb TGM on day 0 and day 11. On day 21, splenocytes of the vaccinated mice were harvested and used as the responder cells, and T2 cells pulsed with or without peptides were used as the stimulator cells for ELISPOT assay. […] In this ELISPOT assay using A2/Kb TGM system, positive results were shown for the epitope peptides identified using human PBMCs.

[4] = test system: angiogenesis induced by MC38 cells; test: Dorsal air sac (DAS) in vivo angiogenesis assay; design: species or system A2/Kb transgenic mice; conditions: vaccinated twice with IFA-conjugated peptide, MC38 chamber, semiquantitative
Text: We examined the effects of peptide vaccination using dorsal air sac (DAS) assay which was designed to measure in vivo angiogenesis induced by tumor cells as previously described (Oikawa et al., (1997) Anticancer Res. 17: 1881-6). In brief, the A2/Kb TGM were vaccinated twice with 1-week interval in the left flank using IFA conjugated corresponding peptides as previously described with some modification (Schuler et al., (1997) J. Exp. Med. 186: 1183-7, Song et al., (1997) J. Exp. Med. 186: 1247-56, Specht et al., (1997) J. Exp. Med. 186: 1213-21). Millipore chamber (Millipore Corporation, Bedford, Mass.) was filled with PBS containing MC38 cells (1×10^6 cells) and implanted in the dorsum of anesthetized mice on day 0. The implanted chambers were removed from s.c. fascia on day 6 and then black rings were placed at the sites exposed to a direct contact with the chamber. The angiogenic response was assessed with photographs taken using a dissecting microscope. The extent of angiogenesis was determined with the number of newly formed blood vessels of >3 mm in length and scored semi quantitatively using an index ranging from 0 (none) to 5 (many).

Sequence | Suppression of tumor growth [1] | CTL inducibility [2] | Specific production of IFN-γ for the corresponding peptide [3] | Inhibition of tumor-induced angiogenesis (newly formed vessels) ([4]; listed as VEGFR1-770) | Inhibition of tumor-induced angiogenesis (newly formed vessels) ([4]; listed as VEGFR1-417) | Inhibition of tumor-induced angiogenesis (newly formed vessels) ([4]; listed as VEGFR1-1087)
TLFWLLLTL (synthetic vascular endothelial growth factor receptor 1 (VEGFR1, Flt-1) epitope peptide binding HLA-A*0201 with high cytotoxic T lymphocyte (CTL) inducibility) [SEQ ID NO: 2] | Significant suppression of tumor growth was observed | particularly high CTL inducibility | Specific production of IFN-γ for the corresponding peptide was observed | significant inhibition on angiogenesis was observed; also recorded: Significant inhibition of tumor-induced angiogenesis was observed | – | –
NLTATLIVNV (synthetic vascular endothelial growth factor receptor 1 (VEGFR1, Flt-1) epitope peptide binding HLA-A*0201 with high cytotoxic T lymphocyte (CTL) inducibility) [SEQ ID NO: 13] | – | particularly high CTL inducibility | Specific production of IFN-γ for the corresponding peptide was observed | – | significant inhibition on angiogenesis was observed; also recorded: Significant inhibition of tumor-induced angiogenesis was observed | –
VLLWEIFSL (synthetic vascular endothelial growth factor receptor 1 (VEGFR1, Flt-1) epitope peptide binding HLA-A*0201 with high cytotoxic T lymphocyte (CTL) inducibility) [SEQ ID NO: 1] | Significant suppression of tumor growth was observed | particularly high CTL inducibility | Specific production of IFN-γ for the corresponding peptide was observed | – | – | significant inhibition on angiogenesis was observed; also recorded: Significant inhibition of tumor-induced angiogenesis was observed
SYGVLLWEIF (synthetic vascular endothelial growth factor receptor 1 (VEGFR1, Flt-1) epitope peptide binding HLA-A*2402 with high cytotoxic T lymphocyte (CTL) inducibility) [SEQ ID NO: 32] | – | particularly high CTL inducibility | – | – | – | –
